Data: patent publication US20100016232A1, “Treatment Of Inflammatory Diseases With Mammal Beta Defensins” (Novozymes A/S, priority 2008, published 2010)
Where no end group is shown, it is not given here.

Experiments:
Type in all cases: cell-based
[1] = test system: TNF production from human peripheral blood mononuclear cells (PBMC); test: TNF production from human PBMC, Cytometric Bead Array
Experimental: (§1) Peripheral blood was drawn from healthy volunteers (with approval from the relevant ethical committee in Denmark). Heparinized blood was diluted 1/1 v/v with RPMI and were subjected to Ficoll density centrifugation within 2 h of drawing. Plasma was collected from the top from individual donors and was kept on ice until it was used at 2% in the culture medium (autologous culture medium). Isolated PBMC were resuspended in autologous culture medium and seeded in 96-well culture plates with 255.000 cells per well in a total of 200 μl. […] The concentrations used for stimulation were optimized on 3 different donors in initial experiments, for LPS two different concentrations were used to be sure to be on a cytokine level that is possible to modulate. In some experiments PBMC were treated with Dexamethason and Indomethacin alone and together with LPS or LTA as a control on downregulation of inflammatory cytokines. The supernatants were collected after incubation at 37° C. for 24 hours, and stored at −80° C. until cytokine measurement. Viability was measured by Alamar Blue (Biosource, DALL 1100) in all experiments and in some cases also by MTS (Promega) according to manufacturer's instruction and was in some experiments also judged by counting of the cells by a Nucleocounter.
(§2) Cytokine production in supernatants was measured by flow cytometry with a human inflammation cytometric bead array (CBA) according to manufacturer's instructions (BD) on a FACSarray flow cytometer. The following cytokines were measured: IL-8, IL-1β, IL-10, TNF, IL-12 p70, IL-6. In some experiments, cytokines were measured by ELISA kits from R&D systems (IL-10, TNF-α, IL-1β) according to the manufacturer' instruction.

[2] = test system: IL-1β production from human peripheral blood mononuclear cells (PBMC); test: IL-1β production from human PBMC, Cytometric Bead Array
Experimental: as §1, §2

[3] = test system: IL-10 production from human peripheral blood mononuclear cells (PBMC); test: IL-10 production from human PBMC, Cytometric Bead Array
Experimental: as §1, §2

[4] = LPS 0.6 ng/ml, test compound 1 μg/ml, Table 16
[5] = LPS 0.6 ng/ml, test compound 10 μg/ml, Table 16
[6] = LPS 0.6 ng/ml, test compound 40 μg/ml, Table 16
[7] = LPS 20 ng/ml, test compound 1 μg/ml, Table 16
[8] = LPS 20 ng/ml, test compound 10 μg/ml, Table 16
[9] = LPS 20 ng/ml, test compound 40 μg/ml, Table 16
[10] = Medium, test compound 1 μg/ml, Table 16
[11] = Medium, test compound 10 μg/ml, Table 16
[12] = Medium, test compound 40 μg/ml, Table 16
[13] = LPS 0.6 ng/ml, test compound 1 μg/ml, Table 18
[14] = LPS 0.6 ng/ml, test compound 10 μg/ml, Table 18
[15] = LPS 0.6 ng/ml, test compound 40 μg/ml, Table 18
[16] = LPS 20 ng/ml, test compound 1 μg/ml, Table 18
[17] = LPS 20 ng/ml, test compound 10 μg/ml, Table 18
[18] = LPS 20 ng/ml, test compound 40 μg/ml, Table 18
[19] = Medium, test compound 1 μg/ml, Table 18
[20] = Medium, test compound 10 μg/ml, Table 18
[21] = Medium, test compound 40 μg/ml, Table 18
[22] = LPS 0.6 ng/ml, test compound 1 μg/ml, Table 17
[23] = LPS 0.6 ng/ml, test compound 10 μg/ml, Table 17
[24] = LPS 0.6 ng/ml, test compound 40 μg/ml, Table 17
[25] = LPS 20 ng/ml, test compound 1 μg/ml, Table 17
[26] = LPS 20 ng/ml, test compound 10 μg/ml, Table 17
[27] = LPS 20 ng/ml, test compound 40 μg/ml, Table 17
[28] = Medium, test compound 1 μg/ml, Table 17
[29] = Medium, test compound 10 μg/ml, Table 17
[30] = Medium, test compound 40 μg/ml, Table 17

rhBD2: recombinant hBD2, which is identical to hBD2 as used in Example 1 (GIGDPVTCLKSGAICHPVFCPRRYKQIGTCGLPGTKCCKKP; not fully specified; ends and bridges not checked; UniProt O15263 24-64, looked up)
TNF [1, 4]: 196 pg/mL | TNF % of control [1, 4]: 27% | TNF [1, 5]: 125 pg/mL | TNF % of control [1, 5]: 17% | TNF [1, 6]: 74 pg/mL | TNF % of control [1, 6]: 10% | TNF [1, 7]: 918 pg/mL | TNF % of control [1, 7]: 42% | TNF [1, 8]: 260 pg/mL | TNF % of control [1, 8]: 12% | TNF [1, 9]: 167 pg/mL | TNF % of control [1, 9]: 8% | TNF [1, 10]: 1 pg/mL | TNF [1, 11]: 0 pg/mL | TNF [1, 12]: 0 pg/mL | IL-1β [2, 13]: 284 pg/mL | IL-1β % of control [2, 13]: 38% | IL-1β [2, 14]: 214 pg/mL | IL-1β % of control [2, 14]: 29% | IL-1β [2, 15]: 124 pg/mL | IL-1β % of control [2, 15]: 17% | IL-1β [2, 16]: 1480 pg/mL | IL-1β % of control [2, 16]: 58% | IL-1β [2, 17]: 624 pg/mL | IL-1β % of control [2, 17]: 25% | IL-1β [2, 18]: 395 pg/mL | IL-1β % of control [2, 18]: 16% | IL-1β [2, 19]: 0 pg/mL | IL-1β [2, 20]: 0 pg/mL | IL-1β [2, 21]: 0 pg/mL | IL-10 [3, 22]: 72 pg/mL | IL-10 % of control [3, 22]: 108% | IL-10 [3, 23]: 103 pg/mL | IL-10 % of control [3, 23]: 155% | IL-10 [3, 24]: 108 pg/mL | IL-10 % of control [3, 24]: 162% | IL-10 [3, 25]: 126 pg/mL | IL-10 % of control [3, 25]: 113% | IL-10 [3, 26]: 243 pg/mL | IL-10 % of control [3, 26]: 218% | IL-10 [3, 27]: 281 pg/mL | IL-10 % of control [3, 27]: 252% | IL-10 [3, 28]: 0 pg/mL | IL-10 [3, 29]: 0 pg/mL | IL-10 [3, 30]: 0 pg/mL

hBD1: human beta defensin 1, SEQ ID NO:1; prepared using chemical synthesis, Peptide Institute Inc. (DHYNCVSSGGQCLYSACPIFTKIQGTCYRGKAKCCK; ends and bridges not checked; cysteine pairing not given here; listed as Homo sapiens)
TNF [1, 4]: 474 pg/mL | TNF % of control [1, 4]: 65% | TNF [1, 5]: 203 pg/mL | TNF % of control [1, 5]: 28% | TNF [1, 6]: 91 pg/mL | TNF % of control [1, 6]: 13% | TNF [1, 7]: 1395 pg/mL | TNF % of control [1, 7]: 64% | TNF [1, 8]: 1311 pg/mL | TNF % of control [1, 8]: 61% | TNF [1, 9]: 999 pg/mL | TNF % of control [1, 9]: 46% | TNF [1, 10]: 1 pg/mL | TNF [1, 11]: 0 pg/mL | TNF [1, 12]: 0 pg/mL | IL-1β [2, 13]: 512 pg/mL | IL-1β % of control [2, 13]: 69% | IL-1β [2, 14]: 401 pg/mL | IL-1β % of control [2, 14]: 54% | IL-1β [2, 15]: 302 pg/mL | IL-1β % of control [2, 15]: 41% | IL-1β [2, 16]: 2087 pg/mL | IL-1β % of control [2, 16]: 82% | IL-1β [2, 17]: 1913 pg/mL | IL-1β % of control [2, 17]: 75% | IL-1β [2, 18]: 1599 pg/mL | IL-1β % of control [2, 18]: 63% | IL-1β [2, 19]: 0 pg/mL | IL-1β [2, 20]: 0 pg/mL | IL-1β [2, 21]: 0 pg/mL | IL-10 [3, 22]: 71 pg/mL | IL-10 % of control [3, 22]: 108% | IL-10 [3, 23]: 76 pg/mL | IL-10 % of control [3, 23]: 114% | IL-10 [3, 24]: 69 pg/mL | IL-10 % of control [3, 24]: 104% | IL-10 [3, 25]: 95 pg/mL | IL-10 % of control [3, 25]: 85% | IL-10 [3, 26]: 100 pg/mL | IL-10 % of control [3, 26]: 90% | IL-10 [3, 27]: 113 pg/mL | IL-10 % of control [3, 27]: 102% | IL-10 [3, 28]: 0 pg/mL | IL-10 [3, 29]: 0 pg/mL | IL-10 [3, 30]: 0 pg/mL

COc1ccc2c(c1)c(CC(=O)O)c(C)n2C(=O)c1ccc(Cl)cc1 [Indomethacin, reference compound]
TNF ([1]; LPS 0.6 ng/ml, Indomethacin 0.72 ug/ml, Table 11): […] | TNF ([1]; LPS 0.6 ng/ml, Indomethacin 7.2 ug/ml, Table 11): […] | TNF ([1]; LPS 20 ng/ml, Indomethacin 0.72 ug/ml, Table 11): […] | TNF ([1]; LPS 20 ng/ml, Indomethacin 7.2 ug/ml, Table 11): […] | TNF ([1]; LTA 1.25 μg/ml, Indomethacin 0.72 ug/ml, Table 11): […] | TNF ([1]; LTA 1.25 μg/ml, Indomethacin 7.2 ug/ml, Table 11): […] | TNF ([1]; Medium, Indomethacin 0.72 ug/ml, Table 11): […] | TNF ([1]; Medium, Indomethacin 7.2 ug/ml, Table 11): […] | IL-1β ([2]; LPS 0.6 ng/ml, Indomethacin 0.72 ug/ml, Table 13): 3100 pg/mL | IL-1β ([2]; LPS 0.6 ng/ml, Indomethacin 7.2 ug/ml, Table 13): 4100 pg/mL | IL-1β ([2]; LPS 20 ng/ml, Indomethacin 0.72 ug/ml, Table 13): 6460 pg/mL | IL-1β ([2]; LPS 20 ng/ml, Indomethacin 7.2 ug/ml, Table 13): 6120 pg/mL | IL-1β ([2]; LTA 1.25 μg/ml, Indomethacin 0.72 ug/ml, Table 13): 7530 pg/mL | IL-1β ([2]; LTA 1.25 μg/ml, Indomethacin 7.2 ug/ml, Table 13): 8910 pg/mL | IL-1β ([2]; Medium, Indomethacin 0.72 ug/ml, Table 13): 10 pg/mL | IL-1β ([2]; Medium, Indomethacin 7.2 ug/ml, Table 13): 40 pg/mL | IL-10 ([3]; LPS 0.6 ng/ml, Indomethacin 0.72 ug/ml, Table 12): 37.3 pg/mL | IL-10 ([3]; LPS 0.6 ng/ml, Indomethacin 7.2 ug/ml, Table 12): 45.7 pg/mL | IL-10 ([3]; LPS 20 ng/ml, Indomethacin 0.72 ug/ml, Table 12): 108.0 pg/mL | IL-10 ([3]; LPS 20 ng/ml, Indomethacin 7.2 ug/ml, Table 12): 77.9 pg/mL | IL-10 ([3]; LTA 1.25 μg/ml, Indomethacin 0.72 ug/ml, Table 12): 84.9 pg/mL | IL-10 ([3]; LTA 1.25 μg/ml, Indomethacin 7.2 ug/ml, Table 12): 90.4 pg/mL | IL-10 ([3]; Medium, Indomethacin 0.72 ug/ml, Table 12): 0.0 pg/mL | IL-10 ([3]; Medium, Indomethacin 7.2 ug/ml, Table 12): 0.0 pg/mL
